This note sets out measurements from PMC12348107, “Saponins from Oxybasis rubra (L.) S.Fuentes, Uotila & Borsh: Comparative Assessment of Cytotoxic Potential Against a Wide Panel of Cancer Cell Lines” (Molecules, 2025).

The nature of data set [1]: LDH cytotoxicity assay, PNT2. The conditions noted are these: human, PNT2 prostate epithelial cells (normal), PNT2 normal cells, LDH test, read-out: Cytotoxic activity expressed as IC50; for IC50 at 24 h: 24 h incubation; for IC50 at 48 h: 48 h incubation. Type of data set: cell-based, human. As for the experimental part: (§1) The cytotoxic activity was tested on human cancer and normal cell lines, grouped in several panels: skin (malignant melanoma HTB-140, malignant melanoma A375, melanoma WM793, and normal keratinocytes HaCaT), prostate (prostate carcinoma DU-145, prostate carcinoma PC3, and prostate epithelial cells PNT2), thyroid (thyroid carcinoma FTC133, thyroid carcinoma, undifferentiated 8505C), gastrointestinal panel (hepatocellular carcinoma HepG2, colon adenocarcinoma Caco-2, and colon adenocarcinoma HT29), and single line of lung carcinoma A549. Cells were grown at standard conditions (37 °C, 5% CO2, relative humidity) and culture media (DMEM/F12 for PNT2, WM793, HT29, A549; DMEM Low Glucose for DU-145; DMEM High Glucose for A375, HaCaT, A549; MEM with NEAA for Caco-2), supplemented with 10% fetal bovine serum (FBS) and 1% antibiotic solution (10,000 U penicillin and 10 mg streptomycin/mL). All cell lines, cell culture media, and supplements were from Merck (Seelze, Germany).
(§2) Before the experiment, cells were seeded onto 96-well plates for 24 h, at a density of 1.5 × 10^4 cells/ well. Then the tested compounds (5–100 μg/mL) were added and incubated for 24 and 48 h. Cell viability was measured with the lactate dehydrogenase (LDH) assay by Clontech (Clontech, Mountain View, CA, USA), as described previously. The absorbance was measured at 490 nm using a Biotek Synergy microplate reader (BioTek Instruments Inc., Winooski, VT, USA). Cell viability was expressed as a percentage of dead cells. Each experiment was conducted in triplicate. Doxorubicin was used as a reference cytostatic.
(§3) The results were expressed as mean (±SD). Data were analyzed using Statistica v.13.3 (StatSoft, Tulsa, OK, USA). The IC50 values were calculated using OriginPro 2020b (64-bit) 9.7.5.184 (Academic) (OriginLab Corporation, Northampton, MA, USA). One-way analysis of variance (ANOVA) and the post-hoc Tukey multiple comparison test were used. The statistical significance was defined at the probability level of p < 0.05. Principal component analysis (PCA) and hierarchical cluster analysis (HCA) were performed using Statistica v.13.3 (StatSoft, Tulsa, OK, USA). Prior to PCA, the Bartlett’s sphericity test was conducted, and the Kaiser-Meyer-Olkin Measure of Sampling Adequacy index (KMO) was examined. In the simple model, for each compound tested (1–4), the cell lines were the cases, and the different concentrations of the compound were the parameters. This was followed by a PCA model in which the cell lines were the parameters, and the compounds (at different concentrations) were the cases. All PCA models were based on a correlation matrix. Hierarchical cluster analysis (CA) based on standardized data was performed using Ward’s method and Euclidean distance. The results were grouped based on Mojena’s rule.

Data set [2] concerns A375 malignant melanoma cells. Put plainly: LDH cytotoxicity assay, A375. Type of data set: cell-based. The conditions noted are these: Homo sapiens, A-375, LDH test, read-out: Cytotoxic activity expressed as IC50. As to the method: as §1, §2, §3
Data set [3] deals with WM793 primary melanoma cells. Put plainly: LDH cytotoxicity assay, WM793. Type of data set: cell-based. The conditions noted are these: Homo sapiens, LDH test, read-out: Cytotoxic activity expressed as IC50. As to the method: as §1, §2, §3
Data set [4] is described as follows: LDH cytotoxicity assay, HaCaT. Type of data set: cell-based, human. The conditions noted are these: human, HaCaT normal keratinocytes, HaCaT normal cells, LDH test, read-out: Cytotoxic activity expressed as IC50; for IC50 at 24 h: 24 h incubation; for IC50 at 48 h: 48 h incubation. As for the experimental part:
as §1, §2, §3

For data set [5], the system named is Caco-2 colon adenocarcinoma cells. Put plainly: LDH cytotoxicity assay, Caco-2. Type of data set: cell-based. The conditions noted are these: Homo sapiens, LDH test, read-out: Cytotoxic activity expressed as IC50. As for the experimental part:
as §1, §2, §3

Data set [6] has as its system FTC133 follicular thyroid carcinoma cells. Put plainly: LDH cytotoxicity assay, FTC133. Type of data set: cell-based. The conditions noted are these: Homo sapiens, FTC-133, LDH test, read-out: Cytotoxic activity expressed as IC50. As for the experimental part: as §1, §2, §3
Data set [7] deals with A549 lung carcinoma cells. Kind of data set: LDH cytotoxicity assay, A549. The conditions noted are these: Homo sapiens, LDH test, read-out: Cytotoxic activity expressed as IC50. Type of data set: cell-based, human. As to the method:
as §1, §2, §3

Data set [8] has as its system PC3 metastatic prostate carcinoma cells. Kind of data set: LDH cytotoxicity assay, PC3. Type of data set: cell-based. The conditions noted are these: Homo sapiens, LDH test, read-out: Cytotoxic activity expressed as IC50. As to the method:
as §1, §2, §3

Data set [9] concerns 8505C undifferentiated thyroid carcinoma cells. Put plainly: LDH cytotoxicity assay, 8505C. Type of data set: cell-based. The conditions noted are these: Homo sapiens, LDH test, read-out: Cytotoxic activity expressed as IC50. As for the experimental part: as §1, §2, §3
In data set [10] the test system is HTB-140 malignant melanoma cells. Kind of data set: LDH cytotoxicity assay, HTB-140. Type of data set: cell-based. The conditions noted are these: Homo sapiens, LDH test, read-out: Cytotoxic activity expressed as IC50. As to the method:
as §1, §2, §3

Data set [11] concerns DU-145 metastatic prostate carcinoma cells. Kind of data set: LDH cytotoxicity assay, DU-145. Type of data set: cell-based, human. The conditions noted are these: Homo sapiens, LDH test, read-out: Cytotoxic activity expressed as IC50. As to the method: as §1, §2, §3
The subject of data set [12] is HepG2 hepatocellular carcinoma cells. Put plainly: LDH cytotoxicity assay, HepG2. Type of data set: cell-based. The conditions noted are these: Homo sapiens, LDH test, read-out: Cytotoxic activity expressed as IC50. As for the experimental part:
as §1, §2, §3

Data set [13] relates to HT29 colon adenocarcinoma cells. Put plainly: LDH cytotoxicity assay, HT29. Type of data set: cell-based. The conditions noted are these: Homo sapiens, HT-29, LDH test, read-out: Cytotoxic activity expressed as IC50. As for the experimental part:
as §1, §2, §3

Setting [14] is: A549, 24 h, A549, 24 h incubation.
The mark [15] stands for this setting: A549, 48 h, A549, 48 h incubation.

Where “and” joins values, the source holds several entries; their conditions need not be identical. Equal values may be shown once. Read-outs that look alike come from different tables or passages of the source. Some results are limits rather than exact numbers.

Turning to `CC1(C)CC[C@]2(C(=O)O[C@@H]3O[C@H](CO)[C@@H](O)[C@H](O)[C@H]3O)CC[C@]3(C)C(=CC[C@@H]4[C@@]5(C)CC[C@H](O)[C@@](C)(CO)[C@@H]5CC[C@]43C)[C@@H]2C1` [Compound 3, 28-O-β-D-glucopyranosyl hederagenin ester], the half-maximal inhibitory concentration (IC50) (in general, the midpoint of a concentration-inhibition curve) at 24 h in data set [1] was 84.8 µM and 53.8 µg/mL; in data set [4], 91.5 µM and 58.1 µg/mL. Moreover, the IC50 at 48 h was 59.5 µM and 37.8 µg/mL in data set [1]; 68.2 µM and 43.3 µg/mL in data set [4]. Moreover, the IC50 in [2] (A375, 24 h incubation) was 73.5 µM and 46.7 µg/mL; in data set [2] (A375, 48 h incubation), 58 µM and 36.8 µg/mL; in [3] (WM793, 24 h incubation), more than 100 µg/mL; in data set [3] (WM793, 48 h incubation), more than 100 µg/mL; in data set [5] (Caco-2, 24 h incubation), 42.6 µM and 27 µg/mL; in data set [5] (Caco-2, 48 h incubation) it was 38 µM and 24.2 µg/mL. Moreover, the IC50 is more than 100 µg/mL in [6] (FTC133, 24 h incubation); more than 100 µg/mL in [6] (FTC133, 48 h incubation); 150 µM and 95.3 µg/mL in data set [7] (setting [14]); 73.2 µM and 46.5 µg/mL in data set [7] (setting [15]); more than 100 µg/mL in data set [8] (PC3, 24 h incubation); 118 µM and 74.8 µg/mL in data set [8] (PC3, 48 h incubation). For the same compound, the IC50 was more than 100 µg/mL in data set [9] (24 h incubation); more than 100 µg/mL in data set [9] (48 h incubation); more than 100 µg/mL in data set [10] (HTB-140, 24 h incubation); 155 µM and 98.2 µg/mL in data set [10] (HTB-140, 48 h incubation); 56.8 µM and 36.1 µg/mL in data set [11] (DU-145, 24 h incubation); 42.6 µM and 27 µg/mL in [11] (DU-145, 48 h incubation). Besides, the IC50 in data set [12] (HepG2, 24 h incubation) was 127 µM and 80.5 µg/mL; in [12] (HepG2, 48 h incubation), 107 µM and 68 µg/mL; in data set [13] (HT29, 24 h incubation), 69.2 µM and 44 µg/mL; in [13] (HT29, 48 h incubation), 60 µM and 38.1 µg/mL.

Turning to `CC1(C)CC[C@]2(C(=O)O)CC[C@]3(C)C(=CC[C@@H]4[C@@]5(C)CC[C@H](O)[C@@](C)(CO)[C@@H]5CC[C@]43C)[C@@H]2C1` [Compound 4, hederagenin], the IC50 at 24 h was 195 µM and 92 µg/mL in [1]; more than 100 µg/mL in data set [4]. Also, the IC50 at 48 h in data set [1] is 159 µM and 75.1 µg/mL; in data set [4], more than 100 µg/mL. Further, the IC50 in data set [2] (A375, 24 h incubation) was more than 100 µg/mL; in data set [2] (A375, 48 h incubation) it was more than 100 µg/mL; in data set [3] (WM793, 24 h incubation), more than 100 µg/mL; in data set [3] (WM793, 48 h incubation) it was more than 100 µg/mL; in data set [5] (Caco-2, 24 h incubation), 191 µM and 90.1 µg/mL; in data set [5] (Caco-2, 48 h incubation), 158 µM and 74.9 µg/mL. Further, the IC50 was more than 100 µg/mL in data set [6] (FTC133, 24 h incubation); more than 100 µg/mL in data set [6] (FTC133, 48 h incubation); more than 100 µg/mL in data set [7] (setting [14]); 208 µM and 98.2 µg/mL in [7] (setting [15]); more than 100 µg/mL in data set [8] (PC3, 24 h incubation); 164 µM and 77.7 µg/mL in data set [8] (PC3, 48 h incubation). Moreover, the IC50 in data set [9] (24 h incubation) is more than 100 µg/mL; in [9] (48 h incubation), more than 100 µg/mL; in [10] (HTB-140, 24 h incubation), more than 100 µg/mL; in data set [10] (HTB-140, 48 h incubation), more than 100 µg/mL; in data set [11] (DU-145, 24 h incubation), 109 µM and 51.5 µg/mL; in data set [11] (DU-145, 48 h incubation), 42.9 µM and 20.3 µg/mL. Besides, the concentration for half-maximal inhibition (IC50) was more than 100 µg/mL in [12] (HepG2, 24 h incubation); more than 100 µg/mL in data set [12] (HepG2, 48 h incubation); more than 100 µg/mL in data set [13] (HT29, 24 h incubation); 191 µM and 90.3 µg/mL in [13] (HT29, 48 h incubation).

Turning to `COc1cccc2c1C(=O)c1c(O)c3c(c(O)c1C2=O)C[C@@](O)(C(=O)CO)C[C@@H]3O[C@H]1C[C@H](N)[C@H](O)[C@H](C)O1` [DOX, doxorubicin], the IC50 at 24 h in data set [1] is 2.01 µM and 1.09 µg/mL; in [4], 7.75 µM and 4.21 µg/mL. In addition, the IC50 in data set [2] (A375, 24 h incubation) is 790 nM and 0.43 µg/mL; in [3] (WM793, 24 h incubation), more than 40 µg/mL; in data set [5] (Caco-2, 24 h incubation), 5.43 µM and 2.95 µg/mL; in data set [6] (FTC133, 24 h incubation), 8.56 µM and 4.65 µg/mL; in data set [7] (setting [14]) it was 2.01 µM and 1.09 µg/mL; in data set [8] (PC3, 24 h incubation) it was more than 40 µg/mL. Besides, the IC50 in data set [9] (24 h incubation) is more than 40 µg/mL; in [10] (HTB-140, 24 h incubation) it was 9.03 µM and 4.91 µg/mL; in [11] (DU-145, 24 h incubation) it was 4.53 µM and 2.46 µg/mL; in data set [12] (HepG2, 24 h incubation), 2.05 µM and 1.11 µg/mL; in data set [13] (HT29, 24 h incubation) it was 2.06 µM and 1.12 µg/mL.
